Test results as given in patent publication US20150150879A2, “Compositions for Treatment of Cystic Fibrosis and Other Chronic Diseases” (Vertex Pharmaceuticals Incorporated, priority 2010, published 2015).

Molecular target: T1, ΔF508-CFTR (Homo sapiens, UniProt P13569, DEL508-508)
T1 construct: expressed in transfected cells
Assay: Membrane potential optical (FRET/VIPR) assay, identification of potentiator compounds, NIH3T3 cells stably expressing ΔF508-CFTR
Type: cell-based
Conditions: Table II.A-4, assay not given; for EC50: modulators of ATP binding cassette transporters
Description: I) Membrane Potential Optical Methods for Assaying ΔF508-CFTR Modulation Properties of Compounds
The optical membrane potential assay utilized voltage-sensitive FRET sensors described by Gonzalez and Tsien (See, Gonzalez, J. E. and R. Y. Tsien (1995) “Voltage sensing by fluorescence resonance energy transfer in single cells” Biophys J 69(4): 1272-80, and Gonzalez, J. E. and R. Y. Tsien (1997) “Improved indicators of cell membrane potential that use fluorescence resonance energy transfer” Chem Biol 4(4): 269-77) in combination with instrumentation for measuring fluorescence changes such as the Voltage/Ion Probe Reader (VIPR) (See, Gonzalez, J. E., K. Oades, et al. (1999) “Cell-based assays and instrumentation for screening ion-channel targets” Drug Discov Today 4(9): 431-439).
These voltage sensitive assays are based on the change in fluorescence resonant energy transfer (FRET) between the membrane-soluble, voltage-sensitive dye, DiSBAC2(3), and a fluorescent phospholipid, CC2-DMPE, which is attached to the outer leaflet of the plasma membrane and acts as a FRET donor. Changes in membrane potential (Vm) cause the negatively charged DiSBAC2(3) to redistribute across the plasma membrane and the amount of energy transfer from CC2-DMPE changes accordingly. The changes in fluorescence emission were monitored using VIPR™ II, which is an integrated liquid handler and fluorescent detector designed to conduct cell-based screens in 96- or 384-well microtiter plates.
Identification of Potentiator Compounds
To identify potentiators of ΔF508-CFTR, a double-addition HTS assay format was developed. During the first addition, a Cl^−-free medium with or without test compound was added to each well. After 22 sec, a second addition of Cl^−-free medium containing 2-10 μM forskolin was added to activate ΔF508-CFTR. The extracellular Cl^− concentration following both additions was 28 mM, which promoted Cl^− efflux in response to ΔF508-CFTR activation and the resulting membrane depolarization was optically monitored using the FRET-based voltage-sensor dyes. Solutions […]

T1 sequence (P13569 with tags, fused parts or gaps DEL508-508): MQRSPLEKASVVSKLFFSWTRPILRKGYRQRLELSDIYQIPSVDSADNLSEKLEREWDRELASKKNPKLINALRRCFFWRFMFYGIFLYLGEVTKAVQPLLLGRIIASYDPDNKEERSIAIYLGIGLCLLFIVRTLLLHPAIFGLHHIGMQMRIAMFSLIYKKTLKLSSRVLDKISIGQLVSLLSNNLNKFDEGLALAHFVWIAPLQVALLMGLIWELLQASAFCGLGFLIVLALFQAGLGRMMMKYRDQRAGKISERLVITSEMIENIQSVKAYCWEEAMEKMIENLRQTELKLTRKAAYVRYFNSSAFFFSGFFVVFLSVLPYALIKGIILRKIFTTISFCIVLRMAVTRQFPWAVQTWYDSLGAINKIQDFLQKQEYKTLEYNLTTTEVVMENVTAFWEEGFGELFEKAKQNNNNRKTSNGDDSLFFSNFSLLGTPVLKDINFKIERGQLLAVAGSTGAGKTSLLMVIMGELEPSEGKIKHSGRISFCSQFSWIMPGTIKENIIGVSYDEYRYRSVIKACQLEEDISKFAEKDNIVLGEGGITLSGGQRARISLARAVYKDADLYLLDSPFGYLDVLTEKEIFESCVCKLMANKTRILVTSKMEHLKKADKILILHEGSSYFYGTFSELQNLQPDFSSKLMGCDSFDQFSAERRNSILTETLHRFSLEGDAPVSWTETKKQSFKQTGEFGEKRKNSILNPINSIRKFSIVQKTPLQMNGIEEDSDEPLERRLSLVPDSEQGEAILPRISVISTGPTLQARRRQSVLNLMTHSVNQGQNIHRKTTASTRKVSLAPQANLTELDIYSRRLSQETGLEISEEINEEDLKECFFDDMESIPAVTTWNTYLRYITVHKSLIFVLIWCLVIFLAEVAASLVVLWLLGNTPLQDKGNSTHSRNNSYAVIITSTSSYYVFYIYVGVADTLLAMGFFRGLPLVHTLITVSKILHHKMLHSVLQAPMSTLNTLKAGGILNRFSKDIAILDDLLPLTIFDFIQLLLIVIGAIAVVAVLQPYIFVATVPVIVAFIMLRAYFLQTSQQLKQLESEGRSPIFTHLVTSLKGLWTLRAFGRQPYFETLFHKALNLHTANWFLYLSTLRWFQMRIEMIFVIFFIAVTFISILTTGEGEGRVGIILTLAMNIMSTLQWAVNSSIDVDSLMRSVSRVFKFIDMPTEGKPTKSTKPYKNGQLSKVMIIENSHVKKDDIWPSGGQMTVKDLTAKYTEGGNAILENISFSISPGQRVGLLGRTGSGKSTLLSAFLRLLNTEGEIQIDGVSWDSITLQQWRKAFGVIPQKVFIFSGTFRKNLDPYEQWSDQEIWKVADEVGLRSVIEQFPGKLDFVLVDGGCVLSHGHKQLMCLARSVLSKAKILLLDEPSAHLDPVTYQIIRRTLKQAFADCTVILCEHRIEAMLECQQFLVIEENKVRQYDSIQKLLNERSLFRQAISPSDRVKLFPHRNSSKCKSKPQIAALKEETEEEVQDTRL

| EC50 | % Activity (relative efficacy) (relative efficacy) | SMILES |
| --- | --- | --- |
| < 10 µM | ++ (“++” means between 25% to 100%) | CC(C)(C)c1cc(C(C)(C)C)c(NC(=O)c2c[nH]c3cccc(O)c3c2=O)cc1O [Compound 464, 5-hydroxy-N-(5-hydroxy-2,4-ditert-butyl-phenyl)-4-oxo-1H-quinoline-3-carboxamide] |
| < 10 µM | – | Cc1cc2nc(NC(=O)c3c[nH]c4ccccc4c3=O)[nH]c2cc1C [compound 422, N-(5,6-dimethyl-3H-benzoimidazol-2-yl)-4-oxo-1H-quinoline-3-carboxamide] |
